Experimental data published in US10722478B2, “Methods and compositions for treating fatigue associated with disordered sleep using very low dose cyclobenzaprine” (Tonix Pharma Holdings Limited, priority 2010, dated 2020).

What was measured:
[1] = tested on: fibromyalgia patients; settings: 10 to 40 mg over a 12-week period; cited from earlier work
[2] = tested on: person with traumatic brain injury; settings: 5 mg at bedtime; within three weeks
Method: A person survived a serious motor vehicle accident with closed head trauma. They underwent six months of physical rehabilitation. […] Because of the spasticity, the neurologist recommended six months of additional physical rehabilitation. […], characterized by both difficulty falling asleep and early-morning awakening. Their neurologist prescribed cyclobenzaprine at a dose of 5 mg at bedtime.

[3] = tested on: person diagnosed with multiple sclerosis; settings: 2 mg then 4 mg at bedtime
Method: A person was diagnosed with multiple sclerosis three years ago. […] However, they have noted that throughout the day they have very low energy levels. Their capacity for physical and mental work has declined to the point where they are unable to function at work. They report getting 6 to 8 hours of sleep each night but feels unrefreshed in the morning. […] They began taking cyclobenzaprine initially at a dose of 2 mg at bedtime. Their doctor increased the dose to 4 mg at bedtime. […] Their doctor asks them to assess their level of fatigue on a scale of 1 to 10 before and after cyclobenzaprine treatment.

[4] = tested on: FM patients; settings: response threshold CAPA2+A3(Norm)≤33%; ITT, LOCF; vs. 33% with placebo, p=0.019
Method: Therefore, an analysis of sleep EEC CAP was performed that measured subtypes CAP A1, CAP A2, and CAP A3 and Total CAP (or CAP A1+A2+A3). Subtype CAP A1 is associated with sleep maintenance or least sleep instability, and subtypes CAP A2 and A3 are associated with moderate to prominent increases in sleep instability.
Because CAP A2 and A3 are most closely associated with sleep instability^26,27, the sum of CAPA2+CAPA3 rates (CAPA2+A3) was used as an indicator of disordered sleep. CAPA2+A3 was normalized (CAPA2+A3(Norm)) by dividing CAPA2+A3 by the total CAP rate (CAPtotal=CAPA1+CAPA2+CAPA3 rates=CAPA1+A2+A3) and expressed as a percentage. Therefore, CAPA2+A3(Norm)=100*CAPA2+A3/CAPA1+A2+A3 and this reflects the percentage of total CAP that is associated with sleep instability.
To determine whether patients experienced nights with a potential CAP response to treatment, it was necessary to determine an empirical threshold below which CAPA2+A3(Norm) values reflect a night of relatively stable sleep for this population. To determine a threshold for CAPA2+A3(Norm) that could be informative for a potential treatment response, the study CAP data were then evaluated by considering a range of cutoff values for CAPA2+A3(Norm) from ≤10% to ≤50%.
Data were coded such that improvements were positive.

Compound: CN(C)CCC=C1c2ccccc2C=Cc2ccccc21 [cyclobenzaprine, 3-(5H-dibenzo[a,d]cyclohepten-5-ylidene)-N,N-dimethyl-1-propanamine]
- muscle tightness [1]: reduction
- pain score [1]: significantly improved
- quality of sleep [1]: significantly improved
- total number of tender points [1]: reduction
- level of energy and concentration [2]: markedly better
- sleep [2]: improved substantially
- level of energy during the day ([3]; with each dose): increased
- quality of sleep ([3]; with each dose): improved
- level of fatigue on a scale of 1 to 10 after treatment ([3]; before treatment 9/10): 3/10
- percentage of patients with increased nights of CAP response while on treatment [4]: 72%
